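These data come from cells grown in 96-well plates and exposed to compound for 48 hours at five concentrations. GI50 = concentration required for 50% inhibition of growth. TGI denotes the concentration required for complete inhibition of growth.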
Legend:
Test in all cases: NCI tumour cell line growth inhibition, 48 h
HCT-116 colon = system: HCT-116 colon
HCT-15 colon = system: HCT-15 colon
HOP-92 NSCLC = system: HOP-92 NSCLC
MDA-MB-231 breast = system: MDA-MB-231 breast
OVCAR-5 ovarian = system: OVCAR-5 ovarian
SR leukemia = system: SR leukemia
SW-620 colon = system: SW-620 colon
UACC-257 melanoma = system: UACC-257 melanoma

SMILES | GI50 (HCT-116 colon) [µM] | TGI (HCT-116 colon) [µM] | GI50 (HCT-15 colon) [µM] | TGI (HCT-15 colon) [µM] | GI50 (HOP-92 NSCLC) [µM] | TGI (HOP-92 NSCLC) [µM] | GI50 (MDA-MB-231 breast) [µM] | TGI (MDA-MB-231 breast) [µM] | GI50 (OVCAR-5 ovarian) [µM] | TGI (OVCAR-5 ovarian) [µM] | GI50 (SR leukemia) [µM] | TGI (SR leukemia) [µM] | GI50 (SW-620 colon) [µM] | TGI (SW-620 colon) [µM] | GI50 (UACC-257 melanoma) [µM] | TGI (UACC-257 melanoma) [µM]
CC1CCC(C#N)(NOC2=NCCN2)CC1 (configuration not stated) | 63.8 | > 100 | 27.8 | > 100 | 35.4 | 91.3 | 54.9 | > 100 | > 100 | > 100 | 38.7 | > 100 | 33.2 | > 100 | > 100 | > 100
Cc1cc(Cl)ccc1Nc1nc(C(F)(F)F)ccc1C(=O)N/N=C/c1ccc(N(C)C)cc1 | 0.743 | > 100 | 0.481 | > 100 |  |  | 1.37 | > 100 | 2.4 | > 100 | 0.872 | 6.79 | 2.04 | > 100 | 4.97 | > 100
CCCCCC/C=C\CCCCCCCCCc1c(O)c(OC)cc(O)c1CN(C)C |  | 22 |  | 10.8 |  |  |  | 31.6 |  | 29.6 |  | 4.23 |  | > 100 |  | 29.3
COc1ccc2nc(C3=CN(C4OC(CO)C(O)C(O)C4O)C4C=CC=CC34)sc2c1 (configuration not stated) | 22.7 | 81.7 | 32.4 | > 100 | 67.4 | > 100 | 23.9 | 61.6 | 26.8 | 83.2 |  |  | 41.9 | > 100 | 28 | 89.3
O=C(Nn1c2c(sc1=NC1CC1)C(=O)c1ccccc1C2=O)c1cc2ccc1CCc1ccc(cc1)CC2 | 1.94 | 6.45 | 1.51 | 3.24 | 2.26 | 14.4 | 1.37 | 9.82 | 1.83 | 3.53 |  |  | 1.92 | 4.32 | 1.69 | 3.41
C=C(C)C(=O)N1c2ccc(OC)cc2CC1C(=O)OCC (configuration not stated) |  | > 100 |  | > 100 |  |  |  | > 100 |  | > 100 |  | > 100 |  | > 100 |  | > 100
O=C1C(Cl)=C(Nc2ccc3c(c2NC2=C(Cl)C(=O)c4ccccc4C2=O)C(=O)c2ccccc2C3=O)C(=O)c2ccccc21 |  |  | 1.62 | 4.19 | 2.03 | 4.95 | 1.67 | 7.87 | 2.06 | 4.4 | 1.42 | > 100 | 2.93 | 10.6 | 1.88 | 3.95
COC(=O)C1=C2CO[C@@H]3C[C@H]4C(C)(C)CCC[C@]4(C)C(=CC1)[C@]23C | 22.5 | 51.3 | 41.7 | > 100 | 8.2 | 44.7 | 83 | > 100 | 21.8 | > 100 |  |  | 39.5 | > 100 | 35.7 | > 100
c1cc(C2N3CCCN2CC3)ccn1 (configuration not stated) |  | > 100 |  | > 100 |  |  |  | > 100 |  | > 100 |  | > 100 |  | > 100 |  | > 100
ClC1=C(Cl)C(Cl)=C(Cl)C1=Cc1ccc(Cl)cc1Cl | 0.206 | 0.494 | 0.3 | 1.3 | 0.633 | 2.56 | 0.29 | 1.15 | 1.33 | 4.01 |  |  | 0.272 | 0.717 |  | 
COc1cc(C(=O)/C=C/c2c(-c3cccs3)nc3ccccn23)cc(OC)c1OC | 1.63 | 3.08 | 1.6 | 5.31 | 0.289 | 2.78 | 3.08 | 26.2 | 2.64 | 5.82 | 1.34 | > 100 |  |  | 1.88 | 4.46
CC(C)[C@H](O)C(=O)N[C@H]1Cc2ccc3c(c2)[C@]24C5=C(N=C(O5)[C@H](C(C)C)NC1=O)c1nc(Cl)c(o1)-c1c(Cl)[nH]c5cccc(c15)-c1cccc2c1N[C@H]4O3 | < 0.001 |  |  | > 10 |  |  | 0.00178 |  | 4.26 | > 10 |  |  | 0.0017 | > 10 | < 0.001 | 3.27
C#CCOc1cccc(Nc2ncnc3c2ncn3C2CCN(C(=O)CCl)C2)c1 (configuration not stated) | 22.7 | 59.8 | 16.5 | 39.6 | 19.1 | 39.6 | 18.6 | 35.9 | 16.8 | 31.6 |  |  | 18.4 | 39.1 | 26.3 | 79.2
O=C1C(Nc2cccc(O)c2)=C(Sc2ccc(Cl)cc2)C(=O)N1Cc1ccccc1 | 5.45 | 33.2 | 10.2 | 33.9 | 4.73 | 30.7 |  |  | 21.1 | 55 | 3.41 | 14.1 |  |  |  | 
O=C(Nc1cc([N+](=O)[O-])cc([N+](=O)[O-])c1)OC1C2CCC1C1OC1C2 (configuration not stated) |  | > 50 |  | > 50 |  | > 50 |  |  |  | > 50 |  |  |  | > 50 |  | > 50

Reference: PubChem BioAssay (NCI)
